{"source": "patent US20040229246A1", "about": "“Diagnostic markers for therapeutic treatment” (Can-Fite Biopharam Ltd., priority 2002, published 2004)", "assay_type_in_all_cases": "cell-based", "key": {"[1]": {"molecular_target": "T1, A3AR (Mus musculus, UniProt Q61618)", "T1 construct": "endogenous in cells; host or cells: B16-F10 melanoma cells", "T1 sequence (Q61618 1-319)": "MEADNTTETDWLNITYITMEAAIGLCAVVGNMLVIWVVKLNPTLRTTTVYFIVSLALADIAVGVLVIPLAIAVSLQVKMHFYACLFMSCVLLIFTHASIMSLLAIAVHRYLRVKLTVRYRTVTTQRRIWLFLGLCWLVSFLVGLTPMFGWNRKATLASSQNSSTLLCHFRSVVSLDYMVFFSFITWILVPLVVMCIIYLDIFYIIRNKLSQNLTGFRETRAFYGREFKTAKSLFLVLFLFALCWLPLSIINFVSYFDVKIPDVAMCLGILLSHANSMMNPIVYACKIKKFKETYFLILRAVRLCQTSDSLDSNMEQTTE", "experiment": "Immunostaining and confocal microscopy of A3AR localization in B16-F10 melanoma cells", "method": "B16-F10 melanoma cells were grown for 24 hours on cover slips coated with Ploy-L-Lysine (500 μg/ml). Cells were fixed in 4% formaldehyde in phosphate-buffered saline (PBS) for 1 hour at room temperature. The fixed cells were rinsed three times for one min with PBS. To block nonspecific interaction of the antibodies, cells were incubated for 30 minutes in 4% normal goat serum (NGS) in PBS (1% bovine serum albumin (BSA), 0.1% Triton X-100). For the single labeling experiments, cells were then incubated with the primary antibodies against A3AR at a dilution of 1:1000 in PBS (1% BSA, 1% NGS, 0.1% Triton X-100) for 24 hours at 4° C. For the double labeling experiments, antibodies against the A2B adenosine receptor (A2BR) were added at a dilution of 1:1000 to the reaction mixture. After being washed three times for 3 minutes with PBS, cells were incubated with Cy3-conjugated anti-goat IgG for the single labeling experiment, and with both, Fluorescein-conjugated anti-rabbit IgG and Cy3 for the double labeling. Both antibodies were diluted to 1:250 in PBS and incubated in the dark for 2 hours. Cells were rinsed with PBS three more times and mounted with AM 100 (Chemicon, Ca). Stained cells were visualized by Confocal Microscope (Zeiss, Axiovert 100 M, excitation at 553 and emission at 560-615 nm for Cy3, and 492 and 520 nm, respectively, for Fluorescein).\nTo study receptor localization, confocal laser microscopy was utilized.\nTo further explore the time course kinetic of A3AR internalization, B16-F10 melanoma cells were exposed for different time periods to IB-MECA and confocal microscopy analysis was carried out. FIG. 2 depicts the gradual internalization rate that occurred within a few minutes, resulting in the disappearance of the fluorescence after 6 minutes. […] This was followed by internalization/externalization after longer incubation time periods (30 and 60 minutes). To confirm the observation that the fluorescence level is decreased as a result of internalization, optical sectioning of the cells was performed (data not shown). […] To show the specificity of A3AR localization, it was compared to that of the A2B adenosine receptor. […] Upon exposure of the cells to IB-MECA, the A2BR was masked by A3AR in the cytoplasm."}, "[2]": {"system": "PKA and GSK-3β", "experiment": "Receptor functionality: Western blot of PKA and GSK-3β in B16-F10 melanoma cells", "method": "(§1) To detect the level of expression of the A3AR proteins Western blot analysis was performed. Cells were incubated in the presence and absence of IB-MECA (10 nM), MRS1523 (10 nM), Forskolin (50 nM), 8 Br cAMP (100 μM), Cycloheximide 20 μg/ml or MG 132 (20 nM) for different time periods at 37° C. Cells were then rinsed with ice-cold PBS and transferred to ice-cold lysis buffer (TNN buffer, 50 mM Tris buffer pH=7.5, 150 mM NaCl, NP 40). In the experiment examining the effect of trypsin on A3AR expression, cells were incubated with 0.5 ml of 0.25% trypsin for 5 minutes. The trypsinized cells were washed again with ice-cold PBS, harvested by centrifugation and subjected to lysis in TNN buffer. Cell debris was removed by centrifugation for 10 minutes, at 7500 xg. The supernatant was utilized for Western Blot analysis. Protein concentrations were determined using the Bio-Rad protein assay dye reagent. Equal amounts of the sample (50 μg) were separated by SDS-PAGE, using 12% polyacrylamide gels. The resolved proteins were then electroblotted onto nitrocellulose membranes (Schleicher & Schuell, Keene, NH, USA). Membranes were blocked with 1% bovine serum albumin and incubated with the desired primary antibody (dilution 1:1000) for 24 hours at 4° C. Blots were then washed and incubated with a secondary antibody for 1 hour at room temperature. Bands were recorded using BCIP/NBT color development kit (Promega, Madison, W1, USA). Data presented in the different figures are representative of at least three different experiments.\nTo test receptor functionality, the protein expression level of PKA and GSK-3β, which are modulated downstream to A3AR activation, was examined. Functional receptor sensitization by IB-MECA was observed after 15 and 60 minutes and was manifested by decreased PKA and increased GSK-3β levels. […] Indeed, the modulatory effect of IB-MECA on PKA and GSK-3β was reversed in the presence of the above agents (FIG. 8a, 8b and 8c)."}, "[3]": {"system": "PKAc, PKB/Akt, β-catenin, c-myc, cyclin D1, NF-κB, GSK-3β", "experiment": "Immunoblot analysis of protein extracts of HCT-116 human colon carcinoma cells", "settings": "HCT-116 cells, compared to control", "method": "as §1\nThe effect of IB-MECA on key proteins downstream to A3AR activation in HCT-116 human colon carcinoma cells was also examined in a manner similar to that performed with melanoma cells (see above). FIG. 7 presents Immunoblot analysis of protein extracts derived from colon carcinoma cell, wherein treatment with IB-MECA (right lane) caused down-regulation of PKAc, PKB/Akt, β-catenin, c-myc and cyclin D1 and NF-κB and up-regulation of GSK-3β expression level as compared to control (left lane)."}}}
{"compound": "CNC(=O)[C@H]1O[C@@H](n2cnc3c(NCc4cccc(I)c4)ncnc32)[C@H](O)[C@@H]1O", "note": "[IB-MECA, 1-deoxy-1-[6[[(3-iodophenyl)methyl]amino]-9H-purine-9-yl]-N-methyl-β-D-ribofura-nuronaminde]", "values": [{"measurement": "time to disappearance of the A3AR fluorescence (internalization)", "setting": "[1]; B16-F10 melanoma cells exposed to IB-MECA", "result": 6, "unit": "min"}, {"measurement": "A3AR fluorescence level on the cell surface", "setting": "[1]; B16-F10 melanoma cells, IB-MECA treated, after 5 minutes", "result": "marked decrease"}, {"measurement": "A3AR localization, optical sectioning", "setting": "[1]; B16-F10 melanoma cells, after 15 and 60 minutes' exposure", "result": "seen both in the cytoplasm and on the cell surface"}, {"measurement": "A3AR localization, optical sectioning", "setting": "[1]; B16-F10 melanoma cells, exposure for 5 minutes", "result": "presented in the cytoplasm"}, {"measurement": "A3AR localization", "setting": "[1]; B16-F10 melanoma cells, prolonged exposure (15 minutes)", "result": "receptor externalization to the cell surface"}, {"measurement": "GSK-3β level", "setting": "[2]; after 15 and 60 minutes", "result": "increased"}, {"measurement": "PKA level", "setting": "[2]; after 15 and 60 minutes", "result": "decreased"}, {"measurement": "GSK-3β level", "setting": "[2]; at 30 minutes", "result": "only slightly increased"}, {"measurement": "PKA level", "setting": "[2]; at 30 minutes", "result": "stabilized"}, {"measurement": "GSK-3β expression level", "setting": "[3]", "result": "up-regulation"}, {"measurement": "NF-κB level", "setting": "[3]", "result": "down-regulation"}, {"measurement": "PKAc level", "setting": "[3]", "result": "down-regulation"}, {"measurement": "PKB/Akt level", "setting": "[3]", "result": "down-regulation"}, {"measurement": "c-myc level", "setting": "[3]", "result": "down-regulation"}, {"measurement": "cyclin D1 level", "setting": "[3]", "result": "down-regulation"}, {"measurement": "β-catenin level", "setting": "[3]", "result": "down-regulation"}]}
